Molecular target: PDZ-mNG (Homo sapiens, UniProt Q96RT1)
Experiment: Binding kinetics of PDZ-mNG to peptDTWV in fixed COS7 cells
Format: cell-based
Conditions: PFA or PFA/GA fixation, compared with kinetics at nanoparticles; result in words

RGSIDTWV-cooh [peptDTWV]
effect of fixation on peptDTWV/PDZ-mNG interaction: not affected by fixation
